The subject of assay [1] is NB-4 leukemic cell line. Put plainly: Fixed propidium iodide staining, flow cytometry. The class given is cell-based, human. As to conditions: 48 h. (In general: A flow cytometer gives signals particle by particle.)
Assay [2] has as its system WM983 melanoma tumour cell line. Put plainly: MTT assay. As to conditions: 48 h, read-out: MTT50. Format: cell-based. A general note: Tetrazolium dyes change colour on reduction, which living cells bring about.
Assay [3] concerns WM793 melanoma tumour cell line. Put plainly: MTT assay. The settings on record: Homo sapiens, 48 h, read-out: MTT50. The class given is cell-based.
The test system of assay [4] is DU145 prostate tumour cell line. Put plainly: MTT assay. The settings on record: Homo sapiens, DU-145, 48 h, read-out: MTT50. Format: cell-based.
Assay [5] concerns 1232 melanoma tumour cell line. The assay can be described thus: MTT assay. Format: cell-based. As to conditions: 48 h, read-out: MTT50.
The test system of assay [6] is WM9 melanoma tumour cell line. Put plainly: MTT assay. The class given is cell-based. As to conditions: 48 h, read-out: MTT50.
Assay [7] deals with MDA-231 breast tumour cell line. The assay can be described thus: MTT assay. The settings on record: Homo sapiens, MDA-MB-231, 48 h, read-out: MTT50. The class given is cell-based.
Assay [8] deals with ZR-751 breast tumour cell line. Put plainly: MTT assay. Format: cell-based. As to conditions: Homo sapiens, ZR-75-1, 48 h, read-out: MTT50.
The test system of assay [9] is SK-BR-3 breast tumour cell line. The assay can be described thus: MTT assay. As to conditions: Homo sapiens, 48 h, read-out: MTT50. The class given is cell-based.

pIC50: −log10 of the molar value.

`CSSc1ccc([N+](=O)[O-])cc1` [M, methyl p-nitrophenyl disulphide]: the “% pre-G1 (Fixed PI)” value in assay [1] (cell line printed NBA, dose 20 uM) was found to be 16%; in [1] (cell line printed NBA, dose 40 uM) it was 60%.

Consider `CCC(=O)OCSSc1ccccc1` [Compound Q, 1-phenyl-1,2-dithiapropyl propionate], for which the pIC50 in assay [2] is 4.33; in [3], 4.33; in assay [4] it was 4.18; in assay [5] it was 4.25; in assay [6] it was 4.39; in assay [7], 4.16. For the same molecule, the pIC50 was 4.28 in [8] and 4.23 in [9].

For `CSSCC(=O)c1ccccc1` [Compound P, phenacyl methyl disulphide], the “% pre-G1 (Fixed PI)” value is 18% in assay [1] (NB-4, dose 50 uM) and 75% in assay [1] (NB-4, dose 150 uM).

(Values after patent publication US20030220524A1, “Sulfur containing compounds” (priority 2000, published 2003).)
